5 substances from patent EP1258532A1, “Thermostable D-hydantoinase from Bacillus circulans and the application thereof” (NATIONAL SCIENCE COUNCIL, priority 2001, dated 2002) can be followed below.

The subject of test [1] is D-hydantoinase. The experiment in a line: Effects of metal ions on D-hydantoinase activity. The test is classed as biochemical, Bacillus circulans. To be noted: ion 500 µM; for Specific activity: 15 min at room temperature, substrate 10 mM D,L-p-HPH in 50 mM Tris-HCl (pH 8.0); for Relative activity: activity percentage based on that without adding ions. How it is done:
Various divalent metal ions (as set forth in Table 1 below) were added to the vector pQE-bcidht in E. coli NovaBlue, crude extracts thereof or the purified D-hydantoinase of the present invention at 500 µM concentration. After 15 minutes of incubation at room temperature, 10 mM substrate of D,L-p-HPH (dissolved in 50 mM Tris-HCl (pH 8.0)) was added. The specific activity of the enzyme was then measured.

The test system of test [2] is D-hydantoinase. Briefly: Effects of H2O2, NaCl and NH4Cl on D-hydantoinase activity. The test is classed as biochemical, Bacillus circulans. The conditions noted are these: in the presence of 0.8 M H2O2; 25°C for 10 min, residual H2O2 removed with catalase; 800000 µM. How it is done:
The vector pQE-bcidht in E. coli NovaBlue, crude extracts thereof or the purified D-hydantoinase of the present invention was incubated at 25°C for 10 min. Afterwards, the catalase was added to the solution to remove residual H2O2, and then the enzyme activity was measured. In addition, various concentrations of NaCl and NH4Cl were added to the solution containing D-hydantoinase. The solution was incubated at room temperature for 10 min, and the enzyme activity was measured.

FeSO2 came in with a Specific activity in the test on D-hydantoinase [1] of 2.52 unit/mg. Besides, the Relative activity in the test with D-hydantoinase [1] (15 min) is 87.5%.
As for NiSO4, in the test with D-hydantoinase [1], the Specific activity is reported as 4.00 unit/mg and the Relative activity is given as 139%.
With H2O2, the retained enzyme activity in the test with D-hydantoinase [2] came out at 85%.
Regarding MgSO4, in the test with D-hydantoinase [1], the Specific activity turned out to be 2.69 unit/mg and the Relative activity stood at 94%.
For ZnSO4, in the test on D-hydantoinase [1], the Specific activity stood at 1.44 unit/mg and the Relative activity turned out to be 50%. In addition, in the test with D-hydantoinase [1] (substrate 10 mM D,L-p-HPH), the “inhibition of D-hydantoinase activity” value came to 50%.
